Results published in patent publication US12577216B2, “Triazine benzoate compound and application thereof” (SHENYANG SINOCHEM AGROCHEMICALS R&D CO., LTD., priority 2020, dated 2026).

Key:
Format in all cases: in vivo
[1] = system: zinnia; assay: Determination of herbicidal activity, post-emergence stem and leaf spray, zinnia; conditions: for control effects on zinnia: 150 g a.i./hm^2, after emergence, visual 0-100%; for Herbicidal activity for Zinnia, control effect %: Table 3 parallel comparison
Method: (§1) Seeds of broadleaf weeds (zinnia and piemarker) or grassy weeds (green bristlegrass and barnyard grass) were respectively sown in a paper cup having a diameter of 7 cm and containing nutrient soil; after sowing, the seeds were covered with 1 cm of soil; the soil was pressed and watered, and then the seeds were cultivated in a greenhouse according to a conventional method; and stems and leaves were sprayed after 2-3 leaf stage of the weeds.
(§2) After the original medicinal acetone was dissolved, the test requires to use 1‰ of Tween 80 to stand in running water to prepare the solution to be tested with a required concentration. According to the design dose of the test, spray treatment was carried out on a track-type crop sprayer (designed and produced by British Engineer Research Ltd.) (spray pressure is 1.95 kg/cm^2, spray volume is 500 L/hm^2 and track speed is 1.48 km/h). The test was repeated for three times. The test material was treated and then placed in an operation hall. The medicinal liquid was naturally dried in the shade, and then was placed in a greenhouse and managed according to the conventional method. The response of the weeds to the drug was observed and recorded. After treatment, the control effects of the test drug on the weeds were visually inspected regularly, expressed by 0-100%. “0” represents no control effect and “100%” represents complete killing.

[2] = system: green bristlegrass; assay: Determination of herbicidal activity, post-emergence stem and leaf spray, green bristlegrass; conditions: for Herbicidal activity for Green Bristlegrass, control effect %: Table 5 parallel comparison
Method: as §1, §2

[3] = system: piemarker; assay: Determination of herbicidal activity, post-emergence stem and leaf spray, piemarker; conditions: for Herbicidal activity for Piemarker, control effect %: Table 4 parallel comparison; for pest or weed control at 150 g/ha: post-emergence, read-out: control effects on piemarker; for pest or weed control at 150 g/ha / control effects on piemarker: 150 g a.i./hm^2, after emergence, visual 0-100%
Method: as §1, §2

[4] = system: barnyard grass; assay: Determination of herbicidal activity, post-emergence stem and leaf spray, barnyard grass; conditions: for Herbicidal activity for Barnyard Grass, control effect %: Table 6 parallel comparison
Method: as §1, §2

[5] = Table 2, 9.375 g a.i./hm^2, after emergence
[6] = Table 2, 37.5 g a.i./hm^2, after emergence
[7] = 2.34 g a.i./hm^2, after emergence
[8] = 9.375 g a.i./hm^2, after emergence
[9] = 37.5 g a.i./hm^2, after emergence

With `CCOC(=O)C(C)OC(=O)c1cc(-n2c(=O)n(C)c(=S)n(C)c2=O)c(F)cc1Cl` (racemic) [Compound 248, 2-chloro-4-fluoro-5-(3,5-dimethyl-2,6-dioxo-4-thio-1,3,5-triazine-1-yl) benzoic acid (1-ethoxycarbonyl)ethyl ester] the “control effects on zinnia” value [1] was 100%, the “Zinnia, control effect %” value [1, 5] was 60% and the “Zinnia, control effect %” value [1, 6] was 90%. The “Herbicidal activity for Zinnia, control effect %” value [1, 7] was 95%, the “Herbicidal activity for Zinnia, control effect %” value [1, 8] was 100% and the “Green Bristlegrass, control effect %” value [2, 5] was 70%. For the same molecule, the “Green Bristlegrass, control effect %” value [2, 6] was 95%, the “Herbicidal activity for Green Bristlegrass, control effect %” value [2, 8] was 60% and the “Herbicidal activity for Green Bristlegrass, control effect %” value [2, 9] was 85%. The “Piemarker, control effect %” value [3, 5] was 90%, the “Piemarker, control effect %” value [3, 6] was 100% and the “Herbicidal activity for Piemarker, control effect %” value [3, 7] was 90%. The “Herbicidal activity for Piemarker, control effect %” value [3, 8] was 100%, the pest or weed control at 150 g/ha [3] was 100% and the “Barnyard Grass, control effect %” value [4, 5] was 95%. For the same molecule, the “Barnyard Grass, control effect %” value [4, 6] was 100%, the “Herbicidal activity for Barnyard Grass, control effect %” value [4, 8] was 90% and the “Herbicidal activity for Barnyard Grass, control effect %” value [4, 9] was 100%.

For `Cn1c(=S)n(C)c(=O)n(-c2cc(C(=O)OCC(=O)OCCCl)c(Cl)cc2F)c1=O` [Compound 221], the “control effects on zinnia” value [1] was 100%, the “Herbicidal activity for Zinnia, control effect %” value [1, 7] was 85% and the “Herbicidal activity for Zinnia, control effect %” value [1, 8] was 100%. The “Herbicidal activity for Green Bristlegrass, control effect %” value [2, 8] was 80%, the “Herbicidal activity for Green Bristlegrass, control effect %” value [2, 9] was 90% and the “control effects on piemarker” value [3] was 100%. The “Herbicidal activity for Piemarker, control effect %” value [3, 7] was 85%, the “Herbicidal activity for Piemarker, control effect %” value [3, 8] was 100% and the “Herbicidal activity for Barnyard Grass, control effect %” value [4, 8] was 98%. For the same molecule, the “Herbicidal activity for Barnyard Grass, control effect %” value [4, 9] was 100%.

For `Cn1c(=S)n(C)c(=O)n(-c2cc(C(=O)OCC(=O)OCCCCCl)c(Cl)cc2F)c1=O` [Compound 225], the “control effects on zinnia” value [1] was 100%, the “Herbicidal activity for Zinnia, control effect %” value [1, 7] was 95% and the “Herbicidal activity for Zinnia, control effect %” value [1, 8] was 100%. For the same molecule, the “Herbicidal activity for Green Bristlegrass, control effect %” value [2, 8] was 80%, the “Herbicidal activity for Green Bristlegrass, control effect %” value [2, 9] was 90% and the “control effects on piemarker” value [3] was 100%. The “Herbicidal activity for Piemarker, control effect %” value [3, 7] was 85%, the “Herbicidal activity for Piemarker, control effect %” value [3, 8] was 100% and the “Herbicidal activity for Barnyard Grass, control effect %” value [4, 8] was 95%. For the same molecule, the “Herbicidal activity for Barnyard Grass, control effect %” value [4, 9] was 100%.

`Cn1c(=S)n(C)c(=O)n(-c2cc(C(=O)OCC(=O)OCC3CC3)c(Cl)cc2F)c1=O` [Compound 241, 2-chloro-4-fluoro-5-(3,5-dimethyl-2,6-dioxo-4-thio-1,3,5-triazine-1-yl)benzoic acid (cyclopropylmethoxycarbonyl) methyl ester] was tested, and the “control effects on zinnia” value [1] was 100%, the “Herbicidal activity for Zinnia, control effect %” value [1, 7] was 100% and the “Herbicidal activity for Zinnia, control effect %” value [1, 8] was 100%. For the same molecule, the “Herbicidal activity for Green Bristlegrass, control effect %” value [2, 8] was 80%, the “Herbicidal activity for Green Bristlegrass, control effect %” value [2, 9] was 100% and the “Herbicidal activity for Piemarker, control effect %” value [3, 7] was 98%. The “Herbicidal activity for Piemarker, control effect %” value [3, 8] was 100%, the pest or weed control at 150 g/ha [3] was 100% and the “Herbicidal activity for Barnyard Grass, control effect %” value [4, 8] was 95%. The “Herbicidal activity for Barnyard Grass, control effect %” value [4, 9] was 98%.

In the case of `Cn1c(=S)n(C)c(=O)n(-c2cc(C(=O)OCC(=O)OCC3CO3)c(Cl)cc2F)c1=O` (centres unmarked) [Compound 245], the “control effects on zinnia” value [1] is reported as 100%, the “Herbicidal activity for Zinnia, control effect %” value [1, 7] is reported as 95% and the “Herbicidal activity for Zinnia, control effect %” value [1, 8] is reported as 100%. For the same molecule, the “Herbicidal activity for Green Bristlegrass, control effect %” value [2, 8] was 70%, the “Herbicidal activity for Green Bristlegrass, control effect %” value [2, 9] was 90% and the “control effects on piemarker” value [3] was 100%. For the same molecule, the “Herbicidal activity for Barnyard Grass, control effect %” value [4, 8] was 95% and the “Herbicidal activity for Barnyard Grass, control effect %” value [4, 9] was 98%.

`Cn1c(=S)n(C)c(=O)n(-c2cc(C(=O)OCC(=O)OCC3CCCO3)c(Cl)cc2F)c1=O` (centres unmarked) [Compound 246] was tested, and the “control effects on zinnia” value [1] was 100%, the “Herbicidal activity for Zinnia, control effect %” value [1, 7] was 95% and the “Herbicidal activity for Zinnia, control effect %” value [1, 8] was 95%. For the same molecule, the “Herbicidal activity for Green Bristlegrass, control effect %” value [2, 8] was 80%, the “Herbicidal activity for Green Bristlegrass, control effect %” value [2, 9] was 90% and the “control effects on piemarker” value [3] was 100%. The “Herbicidal activity for Barnyard Grass, control effect %” value [4, 8] was 95% and the “Herbicidal activity for Barnyard Grass, control effect %” value [4, 9] was 98%.

With `CCOC(=O)[C@@H](C)OC(=O)c1cc(-n2c(=O)n(C)c(=S)n(C)c2=O)c(F)cc1Cl` [Compound 249] the “control effects on zinnia” value [1] was 100%, the “Zinnia, control effect %” value [1, 5] was 50% and the “Zinnia, control effect %” value [1, 6] was 70%. For the same molecule, the “Green Bristlegrass, control effect %” value [2, 5] was 35%, the “Green Bristlegrass, control effect %” value [2, 6] was 80% and the “control effects on piemarker” value [3] was 100%. The “Piemarker, control effect %” value [3, 5] was 65%, the “Piemarker, control effect %” value [3, 6] was 100% and the “Barnyard Grass, control effect %” value [4, 5] was 30%. The “Barnyard Grass, control effect %” value [4, 6] was 55%.

For `CCOC(=O)[C@H](C)OC(=O)c1cc(-n2c(=O)n(C)c(=S)n(C)c2=O)c(F)cc1Cl` [Compound 250], the “control effects on zinnia” value [1] was 100%, the “Zinnia, control effect %” value [1, 5] was 70% and the “Zinnia, control effect %” value [1, 6] was 98%. The “Herbicidal activity for Zinnia, control effect %” value [1, 7] was 80%, the “Herbicidal activity for Zinnia, control effect %” value [1, 8] was 95% and the “Green Bristlegrass, control effect %” value [2, 5] was 100%. For the same molecule, the “Green Bristlegrass, control effect %” value [2, 6] was 100%, the “Herbicidal activity for Green Bristlegrass, control effect %” value [2, 8] was 70% and the “Herbicidal activity for Green Bristlegrass, control effect %” value [2, 9] was 90%. For the same molecule, the “control effects on piemarker” value [3] was 100%, the “Piemarker, control effect %” value [3, 5] was 98% and the “Piemarker, control effect %” value [3, 6] was 100%. The “Herbicidal activity for Piemarker, control effect %” value [3, 7] was 85%, the “Herbicidal activity for Piemarker, control effect %” value [3, 8] was 100% and the “Barnyard Grass, control effect %” value [4, 5] was 50%. For the same molecule, the “Barnyard Grass, control effect %” value [4, 6] was 90%, the “Herbicidal activity for Barnyard Grass, control effect %” value [4, 8] was 90% and the “Herbicidal activity for Barnyard Grass, control effect %” value [4, 9] was 100%.

For `CC#CCOC(=O)C(C)OC(=O)c1cc(-n2c(=O)n(C)c(=S)n(C)c2=O)c(F)cc1Cl` (centres unmarked) [Compound 287], the “control effects on zinnia” value [1] was 100%, the “Herbicidal activity for Zinnia, control effect %” value [1, 7] was 80% and the “Herbicidal activity for Zinnia, control effect %” value [1, 8] was 100%. For the same molecule, the “Herbicidal activity for Green Bristlegrass, control effect %” value [2, 8] was 50%, the “Herbicidal activity for Green Bristlegrass, control effect %” value [2, 9] was 70% and the “control effects on piemarker” value [3] was 100%.

With `CC(OC(=O)c1cc(-n2c(=O)n(C)c(=S)n(C)c2=O)c(F)cc1Cl)C(=O)OCC1CC1` (centres unmarked) [Compound 291] the “control effects on zinnia” value [1] was 100%, the “Herbicidal activity for Zinnia, control effect %” value [1, 7] was 85% and the “Herbicidal activity for Zinnia, control effect %” value [1, 8] was 100%. The “control effects on piemarker” value [3] was 100%, the “Herbicidal activity for Piemarker, control effect %” value [3, 7] was 85% and the “Herbicidal activity for Piemarker, control effect %” value [3, 8] was 100%. For the same molecule, the “Herbicidal activity for Barnyard Grass, control effect %” value [4, 8] was 90% and the “Herbicidal activity for Barnyard Grass, control effect %” value [4, 9] was 100%.

In the case of `C=CCOC(=O)[C@@H](C)Oc1cc(-n2c(=O)n(C)c(=S)n(C)c2=O)c(F)cc1Cl` [KC2, reference compound], the “Herbicidal activity for Green Bristlegrass, control effect %” value [2, 8] is reported as 20%, the “Herbicidal activity for Green Bristlegrass, control effect %” value [2, 9] is reported as 50% and the “Herbicidal activity for Barnyard Grass, control effect %” value [4, 8] is reported as 75%. The “Herbicidal activity for Barnyard Grass, control effect %” value [4, 9] was 90%.
